Data on one compound can be found in patent US20100022457A1 (Bristol-Myers Squibb Company, priority 2006, published 2010).

Where a SMILES comes first, the peptide text is derived from it. [ ]: non-standard residue; d: D form. Ala(6-(2-MePh)pyridin-3-yl) = Cc1ccccc1-c1ccc(C[C@H](N)C(=O)O)cn1; Bip(2'-Et-4'-OMe) = CCc1cc(OC)ccc1-c1ccc(C[C@H](N)C(=O)O)cc1; αMePhe(2-F) = C[C@](N)(Cc1ccccc1F)C(=O)O; Aib = CC(C)(N)C(=O)O

Series [1] can be described thus: Solubility of the compound of SEQ ID NO:9 in the presence of Zn(II) / Zn adduct. In kind it is physicochemical. The following applies: pH 6.8, 50 mM phosphate buffer. The protocol: The concentration of the compound of SEQ ID NO:9 was analyzed by a Waters HPLC system (Waters 2690 Separations Module and Waters 996 Photodiode Array Detector). A gradient method was used where solvent A is 0.05% trifluoroacetic acid (TFA, Sigma) in water, and solvent B is 0.05% TFA in acetone nitrile (ACN, Sigma). Light at a wavelength of 220 nm was used to detect the absorption of the compound of SEQ ID NO:9.
Once the Zn/Compound of SEQ ID NO:9 adduct was formed, formulation development studies were conducted in order to evaluate the solubility of the compound of SEQ ID NO:9 in the presence of Zn(II). An excess amount of the compound of SEQ ID NO:9 was suspended in pH 6.8, 50 mM phosphate buffer. The suspension was then placed on an orbital shaker (Model, 100 RPM) at ambient temperature for 12 hours. The suspension was then centrifuged (Model, speed) and the saturated the clear supernatant of the compound of SEQ ID NO:9 was collected into 10 ml centrifuge tubes. A predetermined amount of zinc acetate solution (50 mM, pH 6.8 phosphate buffer) was added into the saturated solution and then precipitated. The concentration of the compound of SEQ ID NO:9 in solution was obtained by centrifuging the suspension and analyzing the clear supernatants by HPLC. […]

Series [2] can be described thus: Solubility of protamine/Compound of SEQ ID NO:9 adduct and in protamine solution. In kind it is physicochemical. The source says: Thus, the administration of the protamine/Compound of SEQ ID NO:9 adduct may need a suitable suspending agent; or it maybe injected as dry powder.
Therefore, suspension of the compound of SEQ ID NO:9 in the presence of protamine could still provide extended release effect without using pre-formed protamine/SEQ ID NO:9 adduct.

For `CCc1cc(OC)ccc1-c1ccc(C[C@H](NC(=O)[C@H](CC(=O)O)NC(=O)[C@H](CO)NC(=O)[C@@H](NC(=O)[C@](C)(Cc2ccccc2F)NC(=O)[C@@H](NC(=O)CNC(=O)[C@H](CCC(=O)O)NC(=O)C(C)(C)NC(=O)[C@@H](N)Cc2c[nH]cn2)[C@@H](C)O)[C@@H](C)O)C(=O)N[C@@H](Cc2ccc(-c3ccccc3C)nc2)C(N)=O)cc1` [SEQ ID NO: 9] (H-H[Aib]EGT[αMePhe(2-F)]TSD[Bip(2'-Et-4'-OMe)][Ala(6-(2-MePh)pyridin-3-yl)]-NH2), the “apparent solubility with addition of Zn (II)” value in series [1] is “continued to decrease until below the detection limit of HPLC”. Also, in series [1] (read-out: concentration of saturated solution (solubility)), the solubility at 12 h amounted to 17 µg/mL. This compound came in with a solubility in series [2] (MeOH) of over 50000 µg/mL. Besides, the “solubility as a function of protamine in the solution” value in series [2] (pH 6.8, 50 mM PB buffer) was “decreases with increase of protamine in the solution”.
